{
  "source": "patent US5053006A",
  "about": "“Method for the permanent occlusion of arteries” (priority 1990, dated 1991)",
  "key": {"corneal neovasculature": {"tested_on": "corneal neovasculature", "assay_type": "in vivo, New Zealand albino rabbit", "source_text": "The corneal and limbal epithelia, along with the conjunctival epithelium 2-3 mm beyond the limbus, were removed from New Zealand albino rabbits by a combination of surgical scraping and n-heptanol debridement. The denuded corneal surfaces were then healed by the remaining conjunctival epithelium, of which 65% contained extensive neovascularization. From this group, 16 corneas with neovascularization persistent for about 20 months were subjected to photothrombotic treatment.\nIsotonic saline solution was used as a control solution.\nAfter anesthesia with intramuscular injection of xylazine (10 mg/kg bw) and ketamine (10 mg/kg bw), the rabbits were injected intravenously with either 2.5 ml of isotonic saline solution or rose bengal saline solution at a dosage of 40 mg/kg bw. Irradiation of corneal vessels was carried out with an argon ion laser (Model 95, Cooper LaserSonics, Fremont, Calif.) operated at 514.5 nm, as described by Mendelsohn et al. (Arch. Opthalmol., 105:983-988, 1987). The beam focusing apparatus was mounted in an X-Y positioning device attached to a rotary turntable, both with micrometer precision (Daedal, Inc., Harrison City, Pa.). With this apparatus, beam positioning stability and reproducibility of incident intensity were improved because irradiations were administered during the open cycle of the mechanical shutter. The incident power level was set at 200 mW; allowing for reflection losses in the fiber optic focusing system, the incident power was reduced to 130 mW. At the focal point, the laser beam was 63 μm in diameter. Each irradiation was 0.2 second in pulse duration. During the entire procedure, the corneas were continuously rinsed with a balanced salt solution delivered through a peristatic pump and the temperature of the solution was maintained at 37° C. with a water bath. After laser irradiation, topical antibiotics and steroids were applied for two days.\nRoutine external photography and corneal fluorescein angiography were performed to document occlusion of the corneal blood vessels and the duration of their occlusion. Angiograms were taken with a ceiling-mounted Zeiss surgical photoscope after injection of 1 ml of 10 mg/ml fluorescein solution. Baseline angiography was performed two or three days before laser irradiation to avoid possible photosensitizing effects from the fluorescein dye used for angiography. After photothrombotic treatment, angiograms were taken on scheduled dates in order to monitor the duration of the occlusive effect. Late phase (5 minutes after injection) fluorescein angiograms were used for comparison.\nVarious dosages of rose bengal solution were used to investigate the efficacy of photothrombosis."}, "[1]": {"tested_on": "middle cerebral artery (MCA)", "experiment": "He-Ne laser photochemically induced MCA thrombosis (Example 7)", "assay_type": "in vivo, rat (male Sprague-Dawley)", "description": "Normally fed male Sprague-Dawley rats weighting 280-330 gm were used. Anesthesia was induced with 4% halothane and maintained with 1.5% halothane, 70% N2 O and a balance of O2 delivered through a closely fitting face mask. Polyethylene catheters were inserted retrogradely into the right external carotid artery and right femoral artery and vein. The partial pressures of O2 and CO2 and the arterial pH were measured frequently. Rectal temperature was maintained at 37° C. by means of a heating pad.\nRats were mounted on a stereotaxic frame and the right MCA was exposed by a modified subtemporal approach. A portion of the jaw was removed, and the masseter muscle was retracted downward to facilitate exposure of the MCA. The mandibular joint was kept intact so as not to disturb normal feeding. To produce MCA occlusion in these studies, a low power He-Ne laser operating in the TEM^*01 (doughnut) mode at 0.8 mW and at a wavelength of 543.5 nm (PMS Electro-Optics, Boulder, CO.) was used. The efficiency of this laser in interacting with rose bengal dye is appreciable (58%) in that its emission wavelength is near the absorption maximum of rose bengal in tissue (562 nm). The animal was moutned in a stereotaxic frame, and its right side was tilted upward by 35° in order for the laser beam to strike the proximal MCA tangentially. The ring-shaped beam was focused transversely onto the exposed MCA by two crossed cylindrical lenses of 1- and 2-inch focal length. The resulting focused spot, rectangular in shape, was ~200 μm wide (spanning the diameter of the MCA perpendicular to its axis) and 40 μm high (parallel to the MCA axis).\nMCA thrombosis was induced in two steps. First, the linear beam was focused transversely on the MCA segment just distal to the rhinal branch. The intensity of laser irradiation at the focal site was 10 W/cm^2. Rose bengal was then injected intravenously (30 mg/ml in saline, 0.67 ml/kg bw weight). An orange fluorescence was immediately observed in the irradiated MCA segment, and a white thrombus began to form within the fluorescent segment and gradually elongated rostrally. […]"}},
  "note": "Read-outs that look alike come from different tables or passages of the source.",
  "data": [
    {"smiles": "O=C([O-])c1c(Cl)c(Cl)c(Cl)c(Cl)c1-c1c2cc(I)c(=O)c(I)c-2oc2c(I)c([O-])c(I)cc12.[Na+].[Na+]", "note": "[rose bengal]", "values": [
      {"measurement": "Total Laser Shots to Occlude each Vessel", "setting": "corneal neovasculature; 4 mg/kg BW i.v., duration 0-10 min, means ± s.d.", "value": "33 ± 8"},
      {"measurement": "Total Laser Shots to Occlude each Vessel", "setting": "corneal neovasculature; 4 mg/kg BW i.v., duration 10-20 min, means ± s.d.", "value": "53 ± 8"},
      {"measurement": "Total Laser Shots to Occlude each Vessel", "setting": "corneal neovasculature; 4 mg/kg BW i.v., duration 20-30 min, means ± s.d.", "value": "81 ± 11"},
      {"measurement": "Total Laser Shots to Occlude each Vessel", "setting": "corneal neovasculature; 4 mg/kg BW i.v., duration 30-40 min", "value": "> 100"},
      {"measurement": "Total Laser Shots to Occlude each Vessel", "setting": "corneal neovasculature; 4 mg/kg BW i.v., duration 40-50 min", "value": "N.O."},
      {"measurement": "Total Laser Shots to Occlude each Vessel", "setting": "corneal neovasculature; 4 mg/kg BW i.v., duration 50-60 min", "value": "N.O."},
      {"measurement": "shots required to occlude blood vessels", "setting": "corneal neovasculature; 4 mg/kg bw", "value": "more than 100 shots"},
      {"measurement": "time window in which vessels could still be occluded", "setting": "corneal neovasculature; 4 mg/kg bw, sufficient shots", "value": "≤ 30", "unit": "min"},
      {"measurement": "Total Laser Shots to Occlude each Vessel", "setting": "corneal neovasculature; 8 mg/kg BW i.v., duration 0-10 min, means ± s.d.", "value": "13 ± 4"},
      {"measurement": "Total Laser Shots to Occlude each Vessel", "setting": "corneal neovasculature; 8 mg/kg BW i.v., duration 10-20 min, means ± s.d.", "value": "19 ± 1"},
      {"measurement": "Total Laser Shots to Occlude each Vessel", "setting": "corneal neovasculature; 8 mg/kg BW i.v., duration 20-30 min, means ± s.d.", "value": "30 ± 4"},
      {"measurement": "Total Laser Shots to Occlude each Vessel", "setting": "corneal neovasculature; 8 mg/kg BW i.v., duration 30-40 min, means ± s.d.", "value": "51 ± 7"},
      {"measurement": "Total Laser Shots to Occlude each Vessel", "setting": "corneal neovasculature; 8 mg/kg BW i.v., duration 40-50 min, means ± s.d.", "value": "65 ± 6"},
      {"measurement": "Total Laser Shots to Occlude each Vessel", "setting": "corneal neovasculature; 8 mg/kg BW i.v., duration 50-60 min, means ± s.d.", "value": "85 ± 10"},
      {"measurement": "shots per target vessel required for occlusion", "setting": "corneal neovasculature; 8 mg/kg bw or higher", "value": "< 20", "unit": "shots"},
      {"measurement": "Total Laser Shots to Occlude each Vessel", "setting": "corneal neovasculature; 16 mg/kg BW i.v., duration 0-10 min, means ± s.d.", "value": "8 ± 3"},
      {"measurement": "Total Laser Shots to Occlude each Vessel", "setting": "corneal neovasculature; 16 mg/kg BW i.v., duration 10-20 min, means ± s.d.", "value": "9 ± 2"},
      {"measurement": "Total Laser Shots to Occlude each Vessel", "setting": "corneal neovasculature; 16 mg/kg BW i.v., duration 20-30 min, means ± s.d.", "value": "10 ± 2"},
      {"measurement": "Total Laser Shots to Occlude each Vessel", "setting": "corneal neovasculature; 16 mg/kg BW i.v., duration 30-40 min, means ± s.d.", "value": "13 ± 3"},
      {"measurement": "Total Laser Shots to Occlude each Vessel", "setting": "corneal neovasculature; 16 mg/kg BW i.v., duration 40-50 min, means ± s.d.", "value": "20 ± 4"},
      {"measurement": "Total Laser Shots to Occlude each Vessel", "setting": "corneal neovasculature; 16 mg/kg BW i.v., duration 50-60 min, means ± s.d.", "value": "32 ± 5"},
      {"measurement": "Total Laser Shots to Occlude each Vessel", "setting": "corneal neovasculature; 40 mg/kg BW i.v., duration 0-10 min, means ± s.d.", "value": "5 ± 1"},
      {"measurement": "Total Laser Shots to Occlude each Vessel", "setting": "corneal neovasculature; 40 mg/kg BW i.v., duration 10-20 min, means ± s.d.", "value": "5 ± 1"},
      {"measurement": "Total Laser Shots to Occlude each Vessel", "setting": "corneal neovasculature; 40 mg/kg BW i.v., duration 20-30 min, means ± s.d.", "value": "6 ± 1"},
      {"measurement": "Total Laser Shots to Occlude each Vessel", "setting": "corneal neovasculature; 40 mg/kg BW i.v., duration 30-40 min, means ± s.d.", "value": "8 ± 2"},
      {"measurement": "Total Laser Shots to Occlude each Vessel", "setting": "corneal neovasculature; 40 mg/kg BW i.v., duration 40-50 min, means ± s.d.", "value": "10 ± 3"},
      {"measurement": "Total Laser Shots to Occlude each Vessel", "setting": "corneal neovasculature; 40 mg/kg BW i.v., duration 50-60 min, means ± s.d.", "value": "15 ± 4"},
      {"measurement": "corneal fluorescein angiography", "setting": "corneal neovasculature; after photothrombosis", "value": "completely occluded without any dye leakage"},
      {"measurement": "recanalization / new vessel formation", "setting": "corneal neovasculature; four-month study period", "value": "without recanalization or stimulation of new vessel formation elsewhere"},
      {"measurement": "involution of occluded corneal vessels", "setting": "corneal neovasculature; one week after irradiation", "value": "gradually involuted"},
      {"measurement": "conjunctival side effect", "setting": "corneal neovasculature; rabbit, in vivo, 40 mg/kg", "value": "edematous and slightly pinkish in color"},
      {"measurement": "time to complete MCA occlusion", "setting": "[1]; 30 mg/ml, 0.67 ml/kg i.v., 543.5 nm He-Ne, first irradiation", "value": "≤ 10", "unit": "min"},
      {"measurement": "thrombus length", "setting": "[1]; end of second irradiation", "value": "about 1.2 mm"},
      {"measurement": "thrombus length", "setting": "[1]; first irradiation", "value": "~ 400 μm"}
    ]}
  ]
}
